Experimental data taken from patent US12479827B2, “Heteroaromatic carboxamide derivatives as plasma kallikrein inhibitors” (Boehringer Ingelheim International GmbH, priority 2020, dated 2025).

How the values were obtained:
Human PKK = biological target: T1, Human PKK (Homo sapiens, UniProt P03952); assay: Inhibition of PKK using an endpoint assay (human PKK); type: biochemical; conditions: fluorogenic substrate H-Pro-Phe-Arg-AMC, 1 h room temperature, method names human or rat PKK, table does not say which
T1 construct: purchased Enzyme Research Laboratories
In short: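 Endpoint fluorescence (ex 355 nm, em 460 nm) after stopping with 1 μM final PPACK II. Buffer: Tris 100 mM pH 7.8, NaCl 150 mM, BSA 0.1%, Tween20 0.05%, with 1% DMSO present; enzyme is human plasma kallikrein.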

[1] = biological target: T2, PKK in kaolin activated human platelet poor plasma (Homo sapiens, UniProt P03952); assay: Inhibition of PKK in kaolin activated human PPP; type: biochemical; conditions: 25-750 μg/mL kaolin, global fit, text b200 calls the values IC90;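 note: readout is the rate of fluorogenic substrate cleavage in rfu per min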
T2 construct: Platelet poor plasma (PPP) obtained from human wholeblood; from tissue
Description: Platelet poor plasma (PPP) obtained from human wholeblood, anticoagulated with Na-Citrate, is incubated with various concentrations of the test compound together with either 25, 75, 250, or 750 μg/mL kaolin in assay buffer for 20 min at 37° C. such that for each kaolin dose used a concentration response is obtained for the test compound.

T2 sequence (P03952 391-638 limits assumed): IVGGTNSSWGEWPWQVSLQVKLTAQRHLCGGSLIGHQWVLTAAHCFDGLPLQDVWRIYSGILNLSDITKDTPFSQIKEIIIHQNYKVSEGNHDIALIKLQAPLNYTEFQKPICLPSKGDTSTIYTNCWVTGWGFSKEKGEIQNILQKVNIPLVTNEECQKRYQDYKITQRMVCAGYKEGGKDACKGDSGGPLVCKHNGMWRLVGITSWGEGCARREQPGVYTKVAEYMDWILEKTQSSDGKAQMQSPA
T2 sequence (P03952 20-390 limits assumed): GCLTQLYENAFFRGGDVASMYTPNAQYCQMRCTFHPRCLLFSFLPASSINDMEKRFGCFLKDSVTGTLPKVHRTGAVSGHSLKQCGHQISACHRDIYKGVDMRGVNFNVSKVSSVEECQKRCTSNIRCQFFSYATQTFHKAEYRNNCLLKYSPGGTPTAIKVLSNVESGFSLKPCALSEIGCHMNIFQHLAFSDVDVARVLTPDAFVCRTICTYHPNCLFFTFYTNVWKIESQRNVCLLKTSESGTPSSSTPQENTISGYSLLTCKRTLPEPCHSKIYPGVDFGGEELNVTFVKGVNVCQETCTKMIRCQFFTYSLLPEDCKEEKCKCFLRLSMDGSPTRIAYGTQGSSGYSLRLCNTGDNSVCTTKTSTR
T1 sequence (P03952 20-390 limits assumed): as above
T1 sequence (P03952 391-638 limits assumed): as the sequence (P03952 391-638 limits assumed) above

| Structure (SMILES) | IC50 (Human PKK) [nM] | IC50 [1] [nM] |
| --- | --- | --- |
| Cn1cnc2c1CC[C@H]2NC(=O)c1cn(Cc2ccc(N3CC4C(C3)C4(F)F)nc2CO)cn1 (stereo partly drawn) [Example 96] | 1.5 | 134 |
| COc1nc(N2CC3C(C2)C3(F)F)ccc1Cn1cnc(C(=O)N[C@@H]2CCc3c2ncn3C)c1 (stereo partly drawn) [Example 97, 1-[(6-{6,6-Difluoro-3-azabicyclo[3.1.0]hexan-3-yl}-2-methoxypyridin-3-yl)methyl]-N-[(4R)-1-methyl-1H,4H,5H,6H-cyclopenta[d]imidazol-4-yl]-1H-imidazole-4-carboxamide] | 1.4 | 766 |
| Cn1cnc2c1CC[C@H]2NC(=O)c1cn(Cc2ccc(N3CC4CC4C3)nc2CO)cn1 (stereo partly drawn) [Example 98, 1-[(6-{3-Azabicyclo[3.1.0]hexan-3-yl}-2-(hydroxymethyl)pyridin-3-yl)methyl]-N-[(4R)-1-methyl-1H,4H,5H,6H-cyclopenta[d]imidazol-4-yl]-1H-imidazole-4-carboxamide] | 1.5 | 282 |
| Cn1cnc2c1CC[C@H]2NC(=O)c1cnn(Cc2cnc(N3CC4CC4C3)cc2Cl)c1 (stereo partly drawn) [Example 99, 1-[(6-{3-Azabicyclo[3.1.0]hexan-3-yl}-4-chloropyridin-3-yl)methyl]-N-[(4R)-1-methyl-1H,4H,5H,6H-cyclopenta[d]imidazol-4-yl]-1H-pyrazole-4-carboxamide] | 3.7 | 2170 |
| Cc1c(Cn2cc(C(=O)N[C@@H]3CCc4c3ncn4C)cn2)cnc(N2CC3C(C2)C3(F)F)c1C#N (stereo partly drawn) [Example 103, 1-[(5-Cyano-6-{6,6-difluoro-3-azabicyclo[3.1.0]-hexan-3-yl}-4-methylpyridin-3-yl)methyl]-N-[(4R)-1-methyl-1H,4H,5H,6H-cyclopenta-[d]imidazol-4-yl]-1H-pyrazole-4-carboxamide] | 0.7 | 531 |
| Cn1cnc2c1CC[C@H]2NC(=O)c1cnn(Cc2ccc(N3CC4CC4C3)nc2F)c1 (stereo partly drawn) [Example 104, 1-[(6-{3-Azabicyclo[3.1.0]hexan-3-yl}-2-fluoropyridin-3-yl)methyl]-N-[(4R)-1-methyl-1H,4H,5H,6H-cyclopenta[d]imidazol-4-yl]-1H-pyrazole-4-carboxamide] | 3.2 | 706 |
| Cc1c(Cn2cnc(C(=O)N[C@@H]3CCc4c3ncn4C)c2)cnc(N2CC3C(C2)C3(F)F)c1C#N (stereo partly drawn) [Example 105, 1-[(5-Cyano-6-{6,6-difluoro-3-azabicyclo[3.1.0]-hexan-3-yl}-4-methylpyridin-3-yl)methyl]-N-[(4R)-1-methyl-1H,4H,5H,6H-cyclopenta-[d]imidazol-4-yl]-1H-imidazole-4-carboxamide] | 0.5 | 117 |
| CCc1nc(N2CC3C(C2)C3(F)F)ccc1Cn1cc(C(=O)N[C@@H]2CCc3c2ncn3C)nn1 (stereo partly drawn) [Example 109, 1-[(6-{6,6-Difluoro-3-azabicyclo[3.1.0]hexan-3-yl}-2-ethylpyridin-3-yl)methyl]-N-[(4R)-1-methyl-1H,4H,5H,6H-cyclopenta[d]imidazol-4-yl]-1H-1,2,3-triazole-4-carboxamide] | 0.8 | 414 |
| Cc1cc(N2CC3C(C2)C3(F)F)nc(C)c1Cn1cnc(C(=O)N[C@@H]2CCc3c2ncn3C)c1 (stereo partly drawn) [Example 111, 1-[(6-{6,6-Difluoro-3-azabicyclo[3.1.0]hexan-3-yl}-2,4-dimethylpyridin-3-yl)methyl]-N-[(4R)-1-methyl-1H,4H,5H,6H-cyclopenta[d]imidazol-4-yl]-1H-imidazole-4-carboxamide] | 8.6 | 4150 |
| Cn1cnc2c1CC[C@H]2NC(=O)c1cnn(Cc2ccc(N3CC4CC4C3)nc2C#N)c1 (stereo partly drawn) [Example 132, 1-[(6-{3-Azabicyclo[3.1.0]hexan-3-yl}-2-cyanopyridin-3-yl)methyl]-N-[(4R)-1-methyl-1H,4H,5H,6H-cyclopenta[d]imidazol-4-yl]-1H-pyrazole-4-carboxamide] | 1.9 | 425 |
| Cn1cnc2c1CC[C@H]2NC(=O)c1ccn(Cc2ccc(N3CC4C(C3)C4(F)F)nc2)c1 (stereo partly drawn) [Example 140, 1-[(6-{6,6-Difluoro-3-azabicyclo[3.1.0]hexan-3-yl}pyridin-3-yl)methyl]-N-[(4R)-1-methyl-1H,4H,5H,6H-cyclopenta[d]imidazol-4-yl]-1H-pyrrole-3-carboxamide] | 5.8 | 760 |
| Cc1nc(N2CC3C(C2)C3(F)F)ccc1Cn1ccc(C(=O)N[C@@H]2CCc3c2ncn3C)c1 (stereo partly drawn) [Example 141, 1-[(6-{6,6-Difluoro-3-azabicyclo[3.1.0]hexan-3-yl}-2-methylpyridin-3-yl)methyl]-N-[(4R)-1-methyl-1H,4H,5H,6H-cyclopenta[d]imidazol-4-yl]-1H-pyrrole-3-carboxamide] | 2 | 621 |
| Cc1nc(N2CC3C(C2)C3(F)F)ccc1Cc1cc(C(=O)N[C@@H]2CCc3c2ncn3C)c[nH]1 (stereo partly drawn) [Example 142, 5-[(6-{6,6-Difluoro-3-azabicyclo[3.1.0]hexan-3-yl}-2-methylpyridin-3-yl)methyl]-N-[(4R)-1-methyl-1H,4H,5H,6H-cyclopenta[d]imidazol-4-yl]-1H-pyrrole-3-carboxamide] | 5.8 | 731 |
| Cn1cnc2c1CC[C@H]2NC(=O)c1cc(Cc2ccc(N3CC4CC4C3)nc2C(F)F)no1 (stereo partly drawn) [Example 144, 3-[(6-{3-Azabicyclo[3.1.0]hexan-3-yl}-2-(difluoromethyl)pyridin-3-yl)methyl]-N-[(4R)-1-methyl-1H,4H,5H,6H-cyclopenta[d]imidazol-4-yl]-1,2-oxazole-5-carboxamide] | 0.8 | 248 |
| CCc1nc(N2CC3CC3C2)ccc1Cc1cc(C(=O)N[C@@H]2CCc3c2ncn3C)on1 (stereo partly drawn) [Example 146, 3-[(6-{3-Azabicyclo[3.1.0]hexan-3-yl}-2-ethylpyridin-3-yl)methyl]-N-[(4R)-1-methyl-1H,4H,5H,6H-cyclopenta[d]imidazol-4-yl]-1,2-oxazole-5-carboxamide] | 1.1 | 274 |
| Cn1cnc2c1CC[C@H]2NC(=O)c1cc(Cc2ccc(N3CC4CC4C3)nc2Cl)no1 (stereo partly drawn) [Example 148, 3-[(6-{3-Azabicyclo[3.1.0]hexan-3-yl}-2-chloropyridin-3-yl)methyl]-N-[(4R)-1-methyl-1H,4H,5H,6H-cyclopenta[d]imidazol-4-yl]-1,2-oxazole-5-carboxamide] | 1.4 | 985 |

More lines, in order of falling IC50 (Human PKK), values ahead:

| IC50 (Human PKK) [nM] | IC50 [1] [nM] | Structure (SMILES) |
| --- | --- | --- |
| 12.6 | 2780 | Cc1cc(N2CC3C(C2)C3(F)F)nc(C)c1Cn1cc(C(=O)N[C@@H]2CCc3c2ncn3C)cn1 (stereo partly drawn) [Example 112, 1-[(6-{6,6-Difluoro-3-azabicyclo[3.1.0]hexan-3-yl}-2,4-dimethylpyridin-3-yl)methyl]-N-[(4R)-1-methyl-1H,4H,5H,6H-cyclopenta[d]imidazol-4-yl]-1H-pyrazole-4-carboxamide] |
| 9.8 | 1970 | Cc1cc(N2CC3CC3C2)ncc1Cn1cnc(C(=O)N[C@@H]2CCc3c2ncn3C)c1 (stereo partly drawn) [Example 106, 1-[(6-{3-Azabicyclo[3.1.0]hexan-3-yl}-4-methylpyridin-3-yl)methyl]-N-[(4R)-1-methyl-1H,4H,5H,6H-cyclopenta[d]imidazol-4-yl]-1H-imidazole-4-carboxamide] |
| 9.6 | 774 | Cn1cnc2c1CC[C@H]2NC(=O)c1c[nH]c(Cc2ccc(N3CC4C(C3)C4(F)F)nc2)c1 (stereo partly drawn) [Example 139, 5-[(6-{6,6-Difluoro-3-azabicyclo[3.1.0]hexan-3-yl}pyridin-3-yl)methyl]-N-[(4R)-1-methyl-1H,4H,5H,6H-cyclopenta[d]imidazol-4-yl]-1H-pyrrole-3-carboxamide] |
| 2.1 | 1440 | CCOc1nc(N2CC3C(C2)C3(F)F)ccc1Cn1cnc(C(=O)N[C@@H]2CCc3c2ncn3C)c1 (stereo partly drawn) [Example 102, 1-[(6-{6,6-Difluoro-3-azabicyclo[3.1.0]hexan-3-yl}-2-ethoxypyridin-3-yl)methyl]-N-[(4R)-1-methyl-1H,4H,5H,6H-cyclopenta[d]imidazol-4-yl]-1H-imidazole-4-carboxamide] |
| 1.4 | 149 | Cn1cnc2c1CC[C@H]2NC(=O)c1cc(Cc2ccc(N3CC4C(C3)C4(F)F)nc2CO)no1 (stereo partly drawn) [Example 147, 3-[(6-{6,6-Difluoro-3-azabicyclo[3.1.0]hexan-3-yl}-2-(hydroxymethyl)pyridin-3-yl)methyl]-N-[(4R)-1-methyl-1H,4H,5H,6H-cyclopenta-[d]imidazol-4-yl]-1,2-oxazole-5-carboxamide] |
| 0.7 | 245 | Cn1cnc2c1CC[C@H]2NC(=O)c1cc(Cc2ccc(N3CC4C(C3)C4(F)F)nc2C(F)F)no1 (stereo partly drawn) [Example 145, 3-[(6-{6,6-Difluoro-3-azabicyclo[3.1.0]hexan-3-yl}-2-(difluoromethyl)pyridin-3-yl)methyl]-N-[(4R)-1-methyl-1H,4H,5H,6H-cyclopenta-[d]imidazol-4-yl]-1,2-oxazole-5-carboxamide] |
| 0.6 | 297 | CCc1nc(N2CC3CC3C2)ccc1Cn1cc(C(=O)N[C@@H]2CCc3c2ncn3C)nn1 (stereo partly drawn) [Example 101, 1-[(6-{3-Azabicyclo[3.1.0]hexan-3-yl}-2-ethylpyridin-3-yl)methyl]-N-[(4R)-1-methyl-1H,4H,5H,6H-cyclopenta[d]imidazol-4-yl]-1H-1,2,3-triazole-4-carboxamide] |
| 0.6 | 1170 | CCc1nc(N2C[C@@H]3[C@H](C)[C@@H]3C2)ccc1Cn1cnc(C(=O)N[C@@H]2CCc3c2ncn3C)c1 [Example 143, 1-({2-Ethyl-6-[(1R,5S,6R)-6-methyl-3-azabicyclo[3.1.0]hexan-3-yl]pyridin-3-yl}methyl)-N-[(4R)-1-methyl-1H,4H,5H,6H-cyclopenta-[d]imidazol-4-yl]-1H-imidazole-4-carboxamide] |
